Measurements: patent publication US8952024B2, “Herbicidal pyrimidone derivatives” (E I du Pont de Nemours and Company, priority 2009, dated 2015)

Experiments:
Type in all cases: in vivo
rice (Oryza sativa) = experiment: Test B flooded paddy test; details: for Plant response rating, Flood, Rice: 250 g ai/ha, flooded paddy test, visual rating on 0 to 100 scale (0 no effect, 100 complete control) after 13 to 15 days; for Plant response rating, Rice: Flood (flooded paddy test), 13 to 15 days; for Rice plant response rating: Flood, 31 g ai/ha, scale 0 to 100 (0 no effect, 100 complete control)
Method in brief: (§1)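 Ratings are visual, 0–100 (100 = complete control), taken versus untreated controls 13 to 15 days after treatment in the greenhouse. Compound went straight into paddy water held 3 cm above soil, applied to 2-leaf-stage plants of four species.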

[1] = test system: ducksalad (Heteranthera limosa); experiment: Test B flooded paddy test; details: for Plant response rating, Flood, Ducksalad: 250 g ai/ha, flooded paddy test, visual rating on 0 to 100 scale (0 no effect, 100 complete control) after 13 to 15 days; for Plant response rating, Ducksalad: Flood (flooded paddy test), 13 to 15 days; for Ducksalad plant response rating: Flood, 31 g ai/ha, scale 0 to 100 (0 no effect, 100 complete control)
Method in brief: as §1

[2] = test system: barnyardgrass (Echinochloa crus-galli); experiment: Test B flooded paddy test; details: for Plant response rating, Flood, Barnyardgrass: 250 g ai/ha, flooded paddy test, visual rating on 0 to 100 scale (0 no effect, 100 complete control) after 13 to 15 days; for Plant response rating, Barnyardgrass: Flood (flooded paddy test), 13 to 15 days; for Barnyardgrass plant response rating: Flood, 31 g ai/ha, scale 0 to 100 (0 no effect, 100 complete control)
Method in brief: as §1

[3] = test system: umbrella sedge (Cyperus difformis); experiment: Test B flooded paddy test; details: for Plant response rating, Flood, Sedge, Umbrella: 250 g ai/ha, flooded paddy test, visual rating on 0 to 100 scale (0 no effect, 100 complete control) after 13 to 15 days; for Plant response rating, Sedge, Umbrella: Flood (flooded paddy test), 13 to 15 days; for Sedge, Umbrella plant response rating: Flood, 31 g ai/ha, scale 0 to 100 (0 no effect, 100 complete control)
Method in brief: as §1

[4] = test system: velvetleaf (Abutilon theophrasti); experiment: Test A pre-/postemergence plant response
Method in brief: (§2)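 Visually rated 0–100 injury (100 = complete control) versus untreated plants, ~10 days in greenhouse. Application pre- (soil spray, loam/sand) and postemergence (2–10 cm, 1–2 leaf stage), same timepoint.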

[5] = test system: wheat (Triticum aestivum); experiment: Test A pre-/postemergence plant response
Method in brief: as §2

corn (Zea mays) = experiment: Test A pre-/postemergence plant response
Method in brief: as §2

[6] = test system: large crabgrass (Digitaria sanguinalis); experiment: Test A pre-/postemergence plant response
Method in brief: as §2

[7] = test system: giant foxtail (Setaria faberii); experiment: Test A pre-/postemergence plant response
Method in brief: as §2

[8] = test system: pigweed (Amaranthus retroflexus); experiment: Test A pre-/postemergence plant response
Method in brief: as §2

[9] = test system: barnyardgrass (Echinochloa crus-galli); experiment: Test A pre-/postemergence plant response
Method in brief: as §2

[10] = test system: morningglory (Ipomoea spp.); experiment: Test A pre-/postemergence plant response
Method in brief: as §2

[11] = 62 g ai/ha, scale of 0 to 100 where 0 is no effect and 100 is complete control
[12] = 125 g ai/ha, scale 0 to 100, 0 is no effect, 100 is complete control
[13] = Postemergence, 125 g ai/ha, 0 to 100 scale where 0 is no effect and 100 is complete control
[14] = Postemergence, 500 g ai/ha, 0 to 100 scale, 0 = no effect, 100 = complete control, approx. ten days
[15] = Preemergence, 125 g ai/ha, 0 to 100 scale, 0 = no effect, 100 = complete control
[16] = Preemergence, 500 g ai/ha, 0 to 100 scale, 0 = no effect, 100 = complete control
[17] = Preemergence, 500 g ai/ha, visual injury, 0 to 100 scale (0 no effect, 100 complete control), approx. ten days
[18] = 62 g ai/ha, scale 0 to 100, 0 is no effect, 100 is complete control
[19] = Postemergence, 125 g ai/ha, visual injury, 0 to 100 scale (0 no effect, 100 complete control), approx. ten days
[20] = Postemergence, 500 g ai/ha, visual injury, 0 to 100 scale (0 no effect, 100 complete control), approx. ten days

COc1ccc(-n2c(-c3cccc(Cl)c3)ncc(C(=O)C3=C(O)CCCC3=O)c2=O)cc1 [Compound 151]
Plant response rating, Flood, Rice (rice (Oryza sativa)): 50
Plant response rating, Rice (rice (Oryza sativa); [11]): 0
Plant response rating, Rice (rice (Oryza sativa); [12]): 15
Rice plant response rating (rice (Oryza sativa)): 20
Plant response rating, Flood, Ducksalad [1]: 100
Plant response rating, Ducksalad [1, 11]: 80
Plant response rating, Ducksalad [1, 12]: 100
Ducksalad plant response rating [1]: 80
Plant response rating, Flood, Barnyardgrass [2]: 55
Plant response rating, Barnyardgrass [2, 11]: 15
Plant response rating, Barnyardgrass [2, 12]: 30
Barnyardgrass plant response rating [2]: 0
Plant response rating, Flood, Sedge, Umbrella [3]: 100
Plant response rating, Sedge, Umbrella [3, 11]: 85
Plant response rating, Sedge, Umbrella [3, 12]: 100
Sedge, Umbrella plant response rating [3]: 85
Plant response rating, Velvetleaf [4, 13]: 100
Plant response rating, Velvetleaf [4, 14]: 100
Plant response rating, Velvetleaf [4, 15]: 50
Plant response rating, Velvetleaf [4, 16]: 70
Plant response rating, Wheat [5, 13]: 0
Plant response rating, Wheat [5, 14]: 20
Plant response rating, Wheat [5, 15]: 0
Plant response rating, Wheat [5, 16]: 20
Plant response rating, Corn (corn (Zea mays); [13]): 0
Plant response rating, Corn (corn (Zea mays); [14]): 10
Plant response rating, Corn (corn (Zea mays); [15]): 0
Plant response rating, Corn (corn (Zea mays); [17]): 0
Plant response rating, Crabgrass, Large [6, 13]: 30
Plant response rating, Crabgrass, Large [6, 14]: 70
Plant response rating, Crabgrass, Large [6, 15]: 10
Plant response rating, Crabgrass, Large [6, 17]: 50
Plant response rating, Foxtail, Giant [7, 13]: 20
Plant response rating, Foxtail, Giant [7, 14]: 70
Plant response rating, Foxtail, Giant [7, 15]: 20
Plant response rating, Foxtail, Giant [7, 17]: 60
Plant response rating, Pigweed [8, 13]: 100
Plant response rating, Pigweed [8, 14]: 100
Plant response rating, Pigweed [8, 15]: 50
Plant response rating, Pigweed [8, 17]: 70
Plant response rating, Barnyardgrass [9, 13]: 60
Plant response rating, Barnyardgrass [9, 14]: 90
Plant response rating, Barnyardgrass [9, 15]: 20
Plant response rating, Barnyardgrass [9, 17]: 100
Plant response rating, Morningglory [10, 13]: 40
Plant response rating, Morningglory [10, 14]: 100
Plant response rating, Morningglory [10, 17]: 30

Cc1cc(Cl)ccc1-n1c(-c2ccccc2)ncc(C(=O)C2=C(O)CCCC2=O)c1=O [Compound 43]
Plant response rating, Flood, Rice (rice (Oryza sativa)): 40
Plant response rating, Rice (rice (Oryza sativa); [18]): 0
Plant response rating, Flood, Ducksalad [1]: 80
Plant response rating, Ducksalad [1, 18]: 70
Plant response rating, Flood, Barnyardgrass [2]: 20
Plant response rating, Barnyardgrass [2, 18]: 20
Plant response rating, Flood, Sedge, Umbrella [3]: 80
Plant response rating, Sedge, Umbrella [3, 18]: 30
Velvetleaf plant response rating [4, 19]: 100
Plant response rating, Velvetleaf [4, 14]: 100
Plant response rating, Velvetleaf [4, 15]: 60
Plant response rating, Velvetleaf [4, 17]: 100
Wheat plant response rating [5, 19]: 0
Plant response rating, Wheat [5, 14]: 0
Plant response rating, Wheat [5, 15]: 0
Plant response rating, Wheat [5, 17]: 0
Corn plant response rating (corn (Zea mays); [19]): 0
Plant response rating, Corn (corn (Zea mays); [14]): 50
Plant response rating, Corn (corn (Zea mays); [15]): 0
Plant response rating, Corn (corn (Zea mays); [17]): 0
Crabgrass, Large plant response rating [6, 19]: 70
Plant response rating, Crabgrass, Large [6, 14]: 90
Plant response rating, Crabgrass, Large [6, 15]: 50
Plant response rating, Crabgrass, Large [6, 17]: 100
Foxtail, Giant plant response rating [7, 19]: 60
Plant response rating, Foxtail, Giant [7, 14]: 80
Plant response rating, Foxtail, Giant [7, 15]: 10
Plant response rating, Foxtail, Giant [7, 17]: 70
Pigweed plant response rating [8, 19]: 100
Plant response rating, Pigweed [8, 14]: 100
Plant response rating, Pigweed [8, 15]: 90
Plant response rating, Pigweed [8, 17]: 100
Barnyardgrass plant response rating [9, 19]: 70
Plant response rating, Barnyardgrass [9, 14]: 90
Plant response rating, Barnyardgrass [9, 15]: 10
Plant response rating, Barnyardgrass [9, 17]: 80
Morningglory plant response rating [10, 19]: 20
Plant response rating, Morningglory [10, 14]: 80
Plant response rating, Morningglory [10, 15]: 0
Plant response rating, Morningglory [10, 17]: 10

CCc1ccc(-n2c(-c3cccc(C)c3)ncc(C(=O)C3=C(O)CCCC3=O)c2=O)cc1 [Compound 213]
Plant response rating, Flood, Rice (rice (Oryza sativa)): 20
Plant response rating, Rice (rice (Oryza sativa); [11]): 0
Plant response rating, Rice (rice (Oryza sativa); [12]): 0
Rice plant response rating (rice (Oryza sativa)): 0
Plant response rating, Flood, Ducksalad [1]: 100
Plant response rating, Ducksalad [1, 11]: 85
Plant response rating, Ducksalad [1, 12]: 90
Ducksalad plant response rating [1]: 75
Plant response rating, Flood, Barnyardgrass [2]: 30
Plant response rating, Barnyardgrass [2, 11]: 0
Plant response rating, Barnyardgrass [2, 12]: 0
Barnyardgrass plant response rating [2]: 0
Plant response rating, Flood, Sedge, Umbrella [3]: 90
Plant response rating, Sedge, Umbrella [3, 11]: 80
Plant response rating, Sedge, Umbrella [3, 12]: 85
Sedge, Umbrella plant response rating [3]: 65
Plant response rating, Velvetleaf [4, 13]: 70
Velvetleaf plant response rating [4, 20]: 60
Plant response rating, Velvetleaf [4, 15]: 40
Plant response rating, Velvetleaf [4, 16]: 60
Plant response rating, Wheat [5, 13]: 0
Wheat plant response rating [5, 20]: 0
Plant response rating, Wheat [5, 15]: 0
Plant response rating, Wheat [5, 16]: 0
Plant response rating, Corn (corn (Zea mays); [13]): 0
Corn plant response rating (corn (Zea mays); [20]): 20
Plant response rating, Corn (corn (Zea mays); [15]): 0
Plant response rating, Corn (corn (Zea mays); [16]): 0
Plant response rating, Crabgrass, Large [6, 13]: 20
Crabgrass, Large plant response rating [6, 20]: 50
Plant response rating, Crabgrass, Large [6, 15]: 0
Plant response rating, Crabgrass, Large [6, 16]: 50
Plant response rating, Foxtail, Giant [7, 13]: 10
Foxtail, Giant plant response rating [7, 20]: 40
Plant response rating, Foxtail, Giant [7, 15]: 10
Plant response rating, Foxtail, Giant [7, 16]: 30
Plant response rating, Pigweed [8, 13]: 80
Pigweed plant response rating [8, 20]: 100
Plant response rating, Pigweed [8, 15]: 50
Plant response rating, Pigweed [8, 16]: 90
Plant response rating, Barnyardgrass [9, 13]: 20
Barnyardgrass plant response rating [9, 20]: 100
Plant response rating, Barnyardgrass [9, 15]: 0
Plant response rating, Barnyardgrass [9, 16]: 30
Plant response rating, Morningglory [10, 13]: 60
Morningglory plant response rating [10, 20]: 100
Plant response rating, Morningglory [10, 16]: 60
